Measured values from ChEMBL document CHEMBL3885861, “Open TG-GATES”.

Organism: Rattus norvegicus
Assay: Open TG-GATES - Regimen: Single
Type: toxicity, organism-based, Sprague-Dawley
Design: regimen Single, gender Male, age 6 weeks
Conditions: in vivo, po, 0 mg/kg, route gavage, dose level Control; for APTT / Bas / Eos / Fbg / Hb / Ht / Lym / MCHC / MCV / Mono / Neu / PT / Plat / RBC / Ret / WBC: tissue Blood; for KIDNEY_L / KIDNEY_R / KIDNEY_TOTAL: tissue Kidney; for LIVER: tissue Liver; for ALP / ALT / AST / BUN / CRE / DBIL / GLC / IP / K / LDH / Na / PL / RALB / TBIL / TC / TG / TP / gamma-GTP: tissue Plasma

For `C#C[C@]1(O)CC[C@H]2[C@@H]3CCC4=Cc5oncc5C[C@]4(C)[C@H]3CC[C@@]21C` [DANAZOL], the TERMINAL_BW (3 h) was 212.9 g, the APTT (3 h) was 23 s and the Bas (3 h) was 0%. The Eos (3 h) was 1%, the Fbg (3 h) was 292.6 mg/dL and the Hb (3 h) was 13.2 g/dL. It also gave a Ht (3 h) of 40%, a Lym (3 h) of 77.2% and an MCHC (3 h) of 33.1%. For the same compound, the MCV (3 h) was 62.5 fL, the Mono (3 h) was 2.4% and the Neu (3 h) was 19.6%. It also gave a PT (3 h) of 15.8 s, a Plat (3 h) of 111.7 x10_4/uL and an RBC (3 h) of 641.4 x10_4/ul. It also gave a Ret (3 h) of 7%, a WBC (3 h) of 76.3 x10_2/uL and a KIDNEY_L (3 h) of 0.9 g. The KIDNEY_R (3 h) was 0.9 g, the KIDNEY_TOTAL (3 h) was 1.9 g and the LIVER (3 h) was 10.1 g. The ALP (3 h) was 1527.4 IU/L, the ALT (3 h) was 41.8 IU/L and the AST (3 h) was 78.2 IU/L. For the same compound, the BUN (3 h) was 14.2 mg/dL, the CRE (3 h) was 0.1 mg/dL and the DBIL (3 h) was 0 mg/dL. The GLC (3 h) was 187.6 mg/dL, the IP (3 h) was 7.9 mg/dL and the K (3 h) was 4.1 meq/L. The LDH (3 h) was 204.4 IU/L, the Na (3 h) was 142.8 meq/L and the PL (3 h) was 131.8 mg/dL. The RALB (3 h) was 3 g/dL, the TBIL (3 h) was 0.01 mg/dL and the TC (3 h) was 76.8 mg/dL. For the same compound, the TG (3 h) was 70.8 mg/dL, the TP (3 h) was 5.5 g/dL and the gamma-GTP (3 h) was 2 IU/L. It also gave a TERMINAL_BW (6 h) of 212.9 g, an APTT (6 h) of 23.5 s and a Bas (6 h) of 0%. The Eos (6 h) was 1%, the Fbg (6 h) was 300.6 mg/dL and the Hb (6 h) was 13.1 g/dL. It also gave a Ht (6 h) of 39.8%, a Lym (6 h) of 81.2% and an MCHC (6 h) of 32.8%. The MCV (6 h) was 63 fL, the Mono (6 h) was 2.2% and the Neu (6 h) was 14.8%. For the same compound, the PT (6 h) was 16.1 s, the Plat (6 h) was 114.9 x10_4/uL and the RBC (6 h) was 632 x10_4/ul. For the same compound, the Ret (6 h) was 7.2%, the WBC (6 h) was 105 x10_2/uL and the KIDNEY_L (6 h) was 0.9 g. For the same compound, the KIDNEY_R (6 h) was 1 g, the KIDNEY_TOTAL (6 h) was 1.9 g and the LIVER (6 h) was 9.1 g. It also gave an ALP (6 h) of 1276.8 IU/L, an ALT (6 h) of 39.4 IU/L and an AST (6 h) of 73.4 IU/L. For the same compound, the BUN (6 h) was 9.2 mg/dL, the CRE (6 h) was 0.1 mg/dL and the DBIL (6 h) was 0 mg/dL. For the same compound, the GLC (6 h) was 182 mg/dL, the IP (6 h) was 9 mg/dL and the K (6 h) was 4.3 meq/L. For the same compound, the LDH (6 h) was 168.6 IU/L, the Na (6 h) was 141 meq/L and the PL (6 h) was 118.2 mg/dL. The RALB (6 h) was 3 g/dL, the TBIL (6 h) was 0.02 mg/dL and the TC (6 h) was 65.4 mg/dL. The TG (6 h) was 49.4 mg/dL, the TP (6 h) was 5.3 g/dL and the gamma-GTP (6 h) was 1.4 IU/L. It also gave a TERMINAL_BW (9 h) of 209.9 g, an APTT (9 h) of 22.7 s and a Bas (9 h) of 0%. For the same compound, the Eos (9 h) was 0.2%, the Fbg (9 h) was 295.4 mg/dL and the Hb (9 h) was 13.3 g/dL. The Ht (9 h) was 40.9%, the Lym (9 h) was 83% and the MCHC (9 h) was 32.5%. The MCV (9 h) was 64 fL, the Mono (9 h) was 2% and the Neu (9 h) was 13.6%. The PT (9 h) was 16.3 s, the Plat (9 h) was 114.3 x10_4/uL and the RBC (9 h) was 639.2 x10_4/ul. The Ret (9 h) was 7.6%, the WBC (9 h) was 87.3 x10_2/uL and the KIDNEY_L (9 h) was 1 g. It also gave a KIDNEY_R (9 h) of 1 g, a KIDNEY_TOTAL (9 h) of 2 g and an LIVER (9 h) of 9.1 g. For the same compound, the ALP (9 h) was 1266 IU/L, the ALT (9 h) was 33.2 IU/L and the AST (9 h) was 63.6 IU/L. For the same compound, the BUN (9 h) was 11.2 mg/dL, the CRE (9 h) was 0.1 mg/dL and the DBIL (9 h) was 0 mg/dL. The GLC (9 h) was 199.8 mg/dL, the IP (9 h) was 10.1 mg/dL and the K (9 h) was 4.2 meq/L. It also gave an LDH (9 h) of 144.2 IU/L, a Na (9 h) of 141.8 meq/L and a PL (9 h) of 124 mg/dL. It also gave an RALB (9 h) of 2.9 g/dL, a TBIL (9 h) of 0.016 mg/dL and a TC (9 h) of 69.8 mg/dL. For the same compound, the TG (9 h) was 54.8 mg/dL, the TP (9 h) was 5.4 g/dL and the gamma-GTP (9 h) was 1.2 IU/L. For the same compound, the TERMINAL_BW (24 h) was 231.9 g, the APTT (24 h) was 23.6 s and the Bas (24 h) was 0%. The Eos (24 h) was 0.8%, the Fbg (24 h) was 281 mg/dL and the Hb (24 h) was 13.3 g/dL. It also gave a Ht (24 h) of 40.2%, a Lym (24 h) of 81.4% and an MCHC (24 h) of 32.9%. It also gave an MCV (24 h) of 63.2 fL, a Mono (24 h) of 2.2% and a Neu (24 h) of 14.8%. The PT (24 h) was 15.7 s, the Plat (24 h) was 114.7 x10_4/uL and the RBC (24 h) was 637.4 x10_4/ul. For the same compound, the Ret (24 h) was 7.3%, the WBC (24 h) was 102.5 x10_2/uL and the KIDNEY_L (24 h) was 1 g. It also gave a KIDNEY_R (24 h) of 1 g, a KIDNEY_TOTAL (24 h) of 2.1 g and an LIVER (24 h) of 11.3 g. For the same compound, the ALP (24 h) was 1604 IU/L, the ALT (24 h) was 48.2 IU/L and the AST (24 h) was 74.8 IU/L. For the same compound, the BUN (24 h) was 18.6 mg/dL, the CRE (24 h) was 0.1 mg/dL and the DBIL (24 h) was 0 mg/dL. For the same compound, the GLC (24 h) was 197.8 mg/dL, the IP (24 h) was 7.8 mg/dL and the K (24 h) was 4.2 meq/L. It also gave an LDH (24 h) of 173.8 IU/L, a Na (24 h) of 142.2 meq/L and a PL (24 h) of 140 mg/dL. For the same compound, the RALB (24 h) was 3 g/dL, the TBIL (24 h) was 0.006 mg/dL and the TC (24 h) was 74.6 mg/dL. The TG (24 h) was 93 mg/dL and the TP (24 h) was 5.5 g/dL.
